Test results taken from PubChem BioAssay AID1671292.

Target: Homeodomain-interacting protein kinase 1 (Homo sapiens) (UniProt Q86Z02)
Test: inhibition of human HIPK1 (Myak) activity – biochemical, Z'-LYTE, FRET, protease-coupled, direct format, dose response (AID 1671292)
Conditions: Z'-LYTE FRET kinase assay, recombinant HIPK1

Chain of Homeodomain-interacting protein kinase 1 (Homo sapiens) (Q86Z02 whole entry, looked up): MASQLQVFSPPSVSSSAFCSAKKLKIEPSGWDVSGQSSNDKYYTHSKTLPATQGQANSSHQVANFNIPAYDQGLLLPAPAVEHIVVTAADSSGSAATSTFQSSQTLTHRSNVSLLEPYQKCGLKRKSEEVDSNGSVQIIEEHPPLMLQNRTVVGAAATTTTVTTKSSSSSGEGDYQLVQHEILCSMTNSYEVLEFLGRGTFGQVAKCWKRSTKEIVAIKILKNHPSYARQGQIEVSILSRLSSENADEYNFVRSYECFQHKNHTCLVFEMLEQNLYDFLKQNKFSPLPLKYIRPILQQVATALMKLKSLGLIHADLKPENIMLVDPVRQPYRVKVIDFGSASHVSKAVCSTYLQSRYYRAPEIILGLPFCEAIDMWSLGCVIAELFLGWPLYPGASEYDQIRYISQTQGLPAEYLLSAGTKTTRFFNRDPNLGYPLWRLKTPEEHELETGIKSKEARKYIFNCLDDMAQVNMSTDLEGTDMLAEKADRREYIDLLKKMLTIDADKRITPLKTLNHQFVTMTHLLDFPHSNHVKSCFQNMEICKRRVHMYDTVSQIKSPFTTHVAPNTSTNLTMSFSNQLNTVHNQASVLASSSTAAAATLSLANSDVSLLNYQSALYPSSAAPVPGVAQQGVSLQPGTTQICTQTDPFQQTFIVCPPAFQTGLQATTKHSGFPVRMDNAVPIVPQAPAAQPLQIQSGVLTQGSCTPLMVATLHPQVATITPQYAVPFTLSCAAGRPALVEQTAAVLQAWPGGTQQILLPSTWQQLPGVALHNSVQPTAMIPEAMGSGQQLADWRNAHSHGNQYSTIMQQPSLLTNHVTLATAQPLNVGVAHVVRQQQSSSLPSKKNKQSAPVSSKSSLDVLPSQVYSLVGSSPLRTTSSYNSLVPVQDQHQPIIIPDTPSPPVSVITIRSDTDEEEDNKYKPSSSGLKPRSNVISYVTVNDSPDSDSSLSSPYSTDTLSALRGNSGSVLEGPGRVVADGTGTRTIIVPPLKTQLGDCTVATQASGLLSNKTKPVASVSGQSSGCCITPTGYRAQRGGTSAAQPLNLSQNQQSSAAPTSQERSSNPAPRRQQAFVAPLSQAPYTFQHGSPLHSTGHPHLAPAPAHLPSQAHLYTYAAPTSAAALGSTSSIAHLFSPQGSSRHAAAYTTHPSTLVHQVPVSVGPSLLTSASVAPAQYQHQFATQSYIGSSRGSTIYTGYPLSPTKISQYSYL

- IC50: 4.47 µM
SMILES: Brc1c(Br)c(Br)c2n[nH]nc2c1Br
